ChEMBL document CHEMBL1130698, “Design and synthesis of new potent, silent 5-HT1A antagonists by covalent coupling of aminopropanol derivatives with selective serotonin reuptake inhibitors” (Bioorg Med Chem Lett, 1998)

How the values were obtained:
[1] = target: T1, 5-hydroxytryptamine receptor 1A (Homo sapiens) (UniProt P08908); experiment: Antagonistic potency as binding affinity of 5-HT stimulated [35S]GTP gamma S to human 5-HT1A receptor; type: functional
T1 sequence (whole entry): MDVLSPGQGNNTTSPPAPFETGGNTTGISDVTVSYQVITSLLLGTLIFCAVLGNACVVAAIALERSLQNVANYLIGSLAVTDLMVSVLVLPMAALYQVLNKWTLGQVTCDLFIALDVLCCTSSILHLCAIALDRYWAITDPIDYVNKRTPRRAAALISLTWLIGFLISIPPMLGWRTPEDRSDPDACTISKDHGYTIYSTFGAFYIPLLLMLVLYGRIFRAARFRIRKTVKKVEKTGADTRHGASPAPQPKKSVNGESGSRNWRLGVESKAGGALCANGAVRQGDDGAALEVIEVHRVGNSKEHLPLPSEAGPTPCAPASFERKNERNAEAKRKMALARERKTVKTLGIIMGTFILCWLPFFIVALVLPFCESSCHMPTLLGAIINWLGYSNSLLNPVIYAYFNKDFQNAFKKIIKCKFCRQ

[2] = target: T2, 5-hydroxytryptamine receptor 1A (Homo sapiens, UniProt P08908); experiment: Displacement of [3H]8-OH-DPAT from human 5-HT1A receptor
T2 sequence (P08908 whole entry): T1 sequence (whole entry)

Row | Kb [1] [nM] | Ki [2] [nM] | SMILES
1 | 15.2 | 36.4 | OC(CNCCC(Oc1ccc(C(F)(F)F)cc1)c1ccccc1)COc1ccccc1C1CCCC1 (centres undefined)
2 | 388 | 142 | O[C@H](CNCC[C@H](Oc1ccc(C(F)(F)F)cc1)c1ccccc1)COc1cccc2ccccc12
3 | 2.2 | 18.7 | OC(CNCCC(Oc1ccc(C(F)(F)F)cc1)c1ccccc1)COc1cccc2[nH]ccc12 (centres undefined)
4 | 1730 | 391 | OC(CNCCCCCCNCCC(Oc1ccc(C(F)(F)F)cc1)c1ccccc1)COc1cccc2ccccc12 (centres undefined)
5 | 1.4 | 60.3 | O[C@H](CNCC[C@H](Oc1ccc(C(F)(F)F)cc1)c1ccccc1)COc1cccc2[nH]ccc12
6 | 188 | 156 | OC(CNCCCCCCN1CC[C@H](c2ccc(F)cc2)[C@@H](COc2ccc3c(c2)OCO3)C1)COc1cccc2ccccc12 (some centres undefined)
7 | 0.7 | 5.9 | O[C@H](COc1cccc2[nH]ccc12)CN1CC[C@@H](c2ccc(F)cc2)[C@H](COc2ccc3c(c2)OCO3)C1
8 | 37.9 | 32.9 | O[C@@H](CNCC[C@H](Oc1ccc(C(F)(F)F)cc1)c1ccccc1)COc1cccc2ccccc12
9 | 4.3 | 6.7 | OC(CNCCCCCCN1CC[C@H](c2ccc(F)cc2)[C@@H](COc2ccc3c(c2)OCO3)C1)COc1cccc2[nH]ccc12 (some centres undefined)
10 | 0.2 | 7.8 | O[C@@H](CNCC[C@H](Oc1ccc(C(F)(F)F)cc1)c1ccccc1)COc1cccc2[nH]ccc12
11 | 7.5 | 15.7 | O[C@@H](COc1cccc2[nH]ccc12)CN1CC[C@@H](c2ccc(F)cc2)[C@H](COc2ccc3c(c2)OCO3)C1

Row | SMILES | Kb [1] [nM] | Ki [2] [nM]
12 | CCN(CC)C(=O)[C@@]1(c2ccccc2)C[C@H]1CNCC(O)COc1cccc2[nH]ccc12 (some centres undefined) | 14.8 | 45.4
